Reference: the supplement of paper PMC11061612

Experiments:
Assay in all cases: combination Emax (second highest fraction inhibited in the dose matrix, 72 h); higher = more inhibition; extreme values may be limits of the assay
A375 (Melanoma) = test system: A375 (Melanoma)
Procedure, shortened: (§1)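 Bliss excess equals the observed combination effect minus the expected value EA + EB − EA·EB, where EA and EB are the effects of each agent alone. Combination Emax is the second-highest inhibition within the matrix. Inhibition was scaled from CellTiter-Glo 2.0 luminescence, with 0 set by vehicle wells and 1 by blank wells, after 72 hours of two-drug dosing of cells plated in 1536-well plates.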

[1] = test system: BC-1 (B-Cell Non-Hodgkin's Lymphoma)
Procedure, shortened: as §1

C32 (Melanoma) = test system: C32 (Melanoma)
Procedure, shortened: as §1

DK-MG (Glioblastoma) = test system: DK-MG (Glioblastoma)
Procedure, shortened: as §1

[2] = test system: Daudi (Burkitt's Lymphoma)
Procedure, shortened: as §1

GCIY (Gastric Carcinoma) = test system: GCIY (Gastric Carcinoma)
Procedure, shortened: as §1

[3] = test system: GRANTA-519 (B-Cell Non-Hodgkin's Lymphoma)
Procedure, shortened: as §1

[4] = test system: IGROV-1 (Ovarian Carcinoma)
Procedure, shortened: as §1

[5] = test system: KNS-62 (Squamous Cell Lung Carcinoma)
Procedure, shortened: as §1

[6] = test system: L-363 (Plasma Cell Myeloma)
Procedure, shortened: as §1

[7] = test system: MRK-nu-1 (Breast Carcinoma)
Procedure, shortened: as §1

[8] = test system: NCI-H1048 (Small Cell Lung Carcinoma)
Procedure, shortened: as §1

[9] = test system: NCI-H1435 (Non-Small Cell Lung Carcinoma)
Procedure, shortened: as §1

[10] = test system: NCI-H1648 (Lung Adenocarcinoma)
Procedure, shortened: as §1

[11] = test system: NCI-H2009 (Lung Adenocarcinoma)
Procedure, shortened: as §1

[12] = test system: NCI-H2023 (Non-Small Cell Lung Carcinoma)
Procedure, shortened: as §1

NCI-H2452 (Mesothelioma) = test system: NCI-H2452 (Mesothelioma)
Procedure, shortened: as §1

[13] = test system: OCI-M1 (Acute Myeloid Leukemia)
Procedure, shortened: as §1

[14] = test system: SBC-5 (Small Cell Lung Carcinoma)
Procedure, shortened: as §1

[15] = test system: TOV-21G (Ovarian Carcinoma)
Procedure, shortened: as §1

Row | Compound | combination Emax (A375 (Melanoma)) | combination Emax [1] | combination Emax (C32 (Melanoma)) | combination Emax (DK-MG (Glioblastoma)) | combination Emax [2] | combination Emax (GCIY (Gastric Carcinoma)) | combination Emax [3] | combination Emax [4] | combination Emax [5] | combination Emax [6] | combination Emax [7] | combination Emax [8] | combination Emax [9] | combination Emax [10] | combination Emax [11] | combination Emax [12] | combination Emax (NCI-H2452 (Mesothelioma)) | combination Emax [13] | combination Emax [14] | combination Emax [15]
1 | COc1cccc2c1C(=O)c1c(O)c3c(c(O)c1C2=O)C[C@@](O)(C(=O)CO)C[C@@H]3O[C@H]1C[C@H](N)[C@H](O)[C@H](C)O1 [Doxorubicin] + Cc1cc2ncnn2cc1Nc1ncc2c(n1)n(C1CCOCC1)c(=O)n2C [AZD7648] (first compound max 1 µM, 7x7, partner max 10 µM) | 0.949 | 1 | 0.68 | 0.469 | 0.956 | 0.663 | 0.856 | 0.611 | 0.484 | 0.925 | 0.695 | 0.933 | 0.198 | 0.598 | 0.546 | 0.825 | 0.462 | 0.963 | 0.77 | 0.561
2 | CS(=O)(=O)CCNCc1ccc(-c2ccc3ncnc(Nc4ccc(OCc5cccc(F)c5)c(Cl)c4)c3c2)o1 [Lapatinib] + C[C@@H](Oc1cc(-c2cnn(C3CCNCC3)c2)cnc1N)c1c(Cl)ccc(F)c1Cl [Crizotinib] (first compound max 10 µM, 7x7, partner max 10 µM) | 0.86 | 0.959 | 0.7 | 0.925 | 0.945 | 0.882 | 0.751 | 1 | 0.856 | 0.932 | 0.477 | 0.525 | 0.871 | 0.971 | 0.732 | 0.687 | 0.804 | 0.996 | 0.832 | 0.953
3 | CC(=O)c1c(C)c2cnc(Nc3ccc(N4CCNCC4)cn3)nc2n(C2CCCC2)c1=O [Palbociclib] + CC1(C)CCC(CN2CCN(c3ccc(C(=O)NS(=O)(=O)c4ccc(NCC5CCOCC5)c([N+](=O)[O-])c4)c(Oc4cnc5[nH]ccc5c4)c3)CC2)=C(c2ccc(Cl)cc2)C1 [Venetoclax] (first compound max 10 µM, 7x7, partner max 1 µM) | 0.195 | 0.917 | 0.0845 | 0.286 | 0.442 | 0.17 | 0.541 | 0.537 | 0.268 | 0.208 | 0.37 | 0.287 | 0.132 | 0.325 | 0.0582 | 0.348 | 0.282 | 0.499 | 0.23 | 0.519
4 | CC(=O)c1c(C)c2cnc(Nc3ccc(N4CCNCC4)cn3)nc2n(C2CCCC2)c1=O [Palbociclib] + Cc1c2c(nn1C)CSCc1cc(n(C)n1)CSc1cc(c3ccccc3c1)OCCCc1c(C(=O)O)n(C)c3c-2c(Cl)ccc13 [AZD5991] (first compound max 10 µM, 7x7, partner max 1 µM) | 0.356 | 1 | 0.254 | 0.366 | 0.571 | 0.2 | 0.295 | 0.815 | 0.329 | 0.994 | 0.993 | 0.65 | 0.171 | 0.406 | 0.179 | 0.234 | 0.336 | 0.457 | 0.443 | 0.488
5 | CC(=O)c1c(C)c2cnc(Nc3ccc(N4CCNCC4)cn3)nc2n(C2CCCC2)c1=O [Palbociclib] + Cn1cnc2c(F)c(Nc3ccc(Br)cc3Cl)c(C(=O)NOCCO)cc21 [Selumetinib] (first compound max 10 µM, 7x7, partner max 10 µM) | 0.705 | 0.91 | 0.959 | 0.435 | 0.415 | 0.416 | 0.367 | 0.782 | 0.552 | 0.301 | 0.438 | 0.0486 | 0.147 | 0.543 | 0.363 | 0.209 | 0.331 | 0.833 | 0.251 | 0.519
6 | COc1cccc(OCCCN)c1-c1cc(Nc2cnc(C#N)cn2)n[nH]1 [Prexasertib] + C=CCn1c(=O)c2cnc(Nc3ccc(N4CCN(C)CC4)cc3)nc2n1-c1cccc(C(C)(C)O)n1 [AZD1775] (first compound max 1 µM, partner max 1 µM) | 0.952 | 1 | 0.721 | 0.387 | 0.968 | 0.911 | 0.867 | 0.788 | 0.684 | 1 | 0.942 | 0.955 | 0.403 | 0.83 | 0.849 | 0.853 | 0.832 | 0.969 | 0.94 | 0.618
7 | COc1cccc(OCCCN)c1-c1cc(Nc2cnc(C#N)cn2)n[nH]1 [Prexasertib] + CCc1c2c(nc3ccc(O)cc13)-c1cc3c(c(=O)n1C2)COC(=O)[C@]3(O)CC [SN-38] (first compound max 1 µM, 7x7, partner max 0.3 µM) | 0.962 | 0.997 | 0.714 | 0.295 | 0.987 | 0.929 | 1 | 0.863 | 0.874 | 1 | 0.84 | 1 | 0.481 | 0.962 | 0.886 | 0.783 | 0.895 | 1 | 0.997 | 0.852
8 | COc1cccc(OCCCN)c1-c1cc(Nc2cnc(C#N)cn2)n[nH]1 [Prexasertib] + CN(C)CCCOc1ccc(-c2ccc3ncc4c(c3c2)n(C2CCOCC2)c(=O)n4C)cn1 [AZD0156] (first compound max 1 µM, 7x7, partner max 1 µM) | 0.851 | 0.984 | 0.774 | 0.32 | 0.965 | 0.853 | 0.873 | 0.788 | 0.659 | 0.992 | 0.81 | 0.685 | 0.365 | 0.768 | 0.462 | 0.806 | 0.644 | 0.951 | 0.886 | 0.621
9 | COc1cccc(OCCCN)c1-c1cc(Nc2cnc(C#N)cn2)n[nH]1 [Prexasertib] + C[C@@H]1COCCN1C2=NC(=NC(=C2)C3(CC3)[S@](=N)(=O)C)C4=C5C=CNC5=NC=C4 [AZD6738] (first compound max 1 µM, 7x7, partner max 10 µM) | 0.853 | 0.996 | 0.735 | 0.216 | 0.939 | 0.911 | 0.856 | 0.754 | 0.555 | 1 | 0.746 | 0.694 | 0.283 | 0.847 | 0.522 | 0.81 | 0.672 | 0.956 | 0.938 | 0.591
10 | COc1cccc(OCCCN)c1-c1cc(Nc2cnc(C#N)cn2)n[nH]1 [Prexasertib] + Cc1cc2ncnn2cc1Nc1ncc2c(n1)n(C1CCOCC1)c(=O)n2C [AZD7648] (first compound max 1 µM, 7x7, partner max 10 µM) | 0.877 | 0.991 | 0.753 | 0.312 | 0.947 | 0.879 | 0.852 | 0.76 | 0.601 | 0.985 | 0.803 | 0.735 | 0.336 | 0.762 | 0.45 | 0.801 | 0.714 | 0.948 | 0.901 | 0.617
11 | COc1cccc(OCCCN)c1-c1cc(Nc2cnc(C#N)cn2)n[nH]1 [Prexasertib] + O=C(c1cc(Cc2n[nH]c(=O)c3ccccc23)ccc1F)N1CCN(C(=O)C2CC2)CC1 [Olaparib] (first compound max 1 µM, 7x7, partner max 10 µM) | 0.815 | 0.986 | 0.769 | 0.224 | 0.945 | 0.837 | 0.865 | 0.705 | 0.576 | 1 | 0.674 | 0.894 | 0.345 | 0.802 | 0.574 | 0.801 | 0.735 | 0.981 | 0.914 | 0.579
12 | CCc1c2c(nc3ccc(O)cc13)-c1cc3c(c(=O)n1C2)COC(=O)[C@]3(O)CC [SN-38] + CN(C)CCCOc1ccc(-c2ccc3ncc4c(c3c2)n(C2CCOCC2)c(=O)n4C)cn1 [AZD0156] (first compound max 0.3 µM, 7x7, partner max 1 µM) | 0.993 | 0.979 | 0.688 | 0.241 | 0.95 | 0.8 | 0.93 | 0.691 | 0.872 | 0.559 | 0.803 | 0.968 | 0.202 | 0.875 | 0.562 | 0.834 | 0.33 | 0.991 | 0.864 | 0.574
13 | Cn1cnc2c(F)c(Nc3ccc(Br)cc3Cl)c(C(=O)NOCCO)cc21 [Selumetinib] + C=CCn1c(=O)c2cnc(Nc3ccc(N4CCN(C)CC4)cc3)nc2n1-c1cccc(C(C)(C)O)n1 [AZD1775] (first compound max 10 µM, partner max 1 µM) | 0.755 | 0.993 | 0.987 | 0.408 | 0.662 | 0.475 | 0.869 | 0.848 | 0.434 | 0.924 | 0.0295 | 0.862 | 0.209 | 0.621 | 0.779 | 0.281 | 0.547 | 0.956 | 0.514 | 0.702
